The target of series [1] is T1, h5-HT4b (Homo sapiens, UniProt Q13639).
T1 construct: expressed in transfected cells; host or cells: HEK 293 (clone 9), membrane preparation
The series is described as follows: 5HT4 antagonism: [3H]GR113808 binding to membranes of h5-HT4b-HEK 293 clone 9 cells. Particulars: displacement of [3H]GR113808 0.1 nM; h5-HT4b-HEK 293 membranes; 30 min at 25° C.; read-out: pIC50 (5HT4 antagonistic data) (converted). As for the experimental part:
h5-HT4b-HEK 293 clone 9 cells were cultured in 150 mm Petri dishes and washed twice with cold PBS. The cells were then scraped from the plates and suspended in 50 mM Tris-HCl buffer, pH 7.4 and harvested by centrifugation at 23,500 rpm for 10 minutes. The pellet was resuspended in 5 mM Tris-HCl, pH 7.4 and homogenized with an Ultra Turrax homogenizer. The membranes were collected by centrifugation at 30,000 rpm for 20 min, resuspended in 50 mM Tris-HCl pH 7.4 and stored at −80° C. For the experiment, assay mixtures (0.5 ml) contained 50 μl of the tritiated ligand (5-HT4 antagonist [^3H]GR113808 0.1 nM) and 0.4 ml membrane preparation (15 μg protein/ml). 50 μl of 10% DMSO was added for total binding. 50 μl of 1 μM of (+)-trans-(1-butyl-3-hydroxy-4-piperidinyl)methyl 8-amino-7-chloro-2,3-dihydro-1,4-benzodioxin-5-carboxylate (a proprietary 5HT4 agonist of Janssen Pharmaceutica) was added for determination of non-specific binding.
The [^3H]GR113808 assay buffer was 50 mM HEPES-NaOH, pH 7.4. The mixtures were incubated for 30 min at 25° C. The incubation was terminated by filtration over a Unifilter 96 GF/B presoaked in 0.1% polyethylenimine, followed by six washing steps with 50 mM HEPES-NaOH, pH 7.4.
A general note: Displacement assays read how much labelled ligand stays bound in the presence of the test substance.

The nature of series [2]: Metabolic stability: incubation with liver microsomes and NADPH-generating system, LC-MS analysis. Format: in vitro ADME. As to conditions: compound 5 μM; microsomes 1 mg/ml; NADPH-generating system; 60 minutes at 37 degrees Celsius. As for the experimental part:
Sub-cellular tissue preparations were made according to Gorrod et al. (Xenobiotica 5: 453-462, 1975) by centrifugal separation after mechanical homogenization of tissue. Liver tissue was rinsed in ice-cold 0.1 M Tris-HCl (pH 7.4) buffer to wash excess blood. Tissue was then blotted dry, weighed and chopped coarsely using surgical scissors. The tissue pieces were homogenized in 3 volumes of ice-cold 0.1 M phosphate buffer (pH 7.4).
Tissue homogenates were centrifuged at 9000×g for 20 minutes at 4° C. The resulting supernatant was stored at −80° C. and is designated ‘S9’.
The S9 fraction can be further centrifuged at 100.000×g for 60 minutes (4° C.). The resulting supernatant was carefully aspirated, aliquoted and designated ‘cytosol’. The pellet was re-suspended in 0.1 M phosphate buffer (pH 7.4) in a final volume of 1 ml per 0.5 g original tissue weight and designated ‘microsomes’.
All sub-cellular fractions were aliquoted, immediately frozen in liquid nitrogen and stored at −80° C. until use.
For the samples to be tested, the incubation mixture contained PBS (0.1M), compound (5 μM), microsomes (1 mg/ml) and a NADPH-generating system (0.8 mM glucose-6-phosphate, 0.8 mM magnesium chloride and 0.8 Units of glucose-6-phosphate dehydrogenase). Control samples contained the same material but the microsomes were replaced by heat inactivated (10 minutes at 95 degrees Celsius) microsomes. Recovery of the compounds in the control samples was always 100%.
The mixtures were preincubated for 5 minutes at 37 degrees Celsius. The reaction was started at time point zero (t=0) by addition of 0.8 mM NADP and the samples were incubated for 60 minutes (t=60). The reaction was terminated by the addition of 2 volumes of DMSO. Then the samples were centrifuged for 10 minutes at 900×g and the supernatants were stored at room temperature for no longer as 24 hours before analysis. All incubations were performed in duplo. Analysis of the supernatants was performed with LC-MS analysis. Elution of the samples was performed on a Xterra MS C18 (50×4.6 mm, 5 μm, Waters, US). An Alliance 2790 (Supplier: Waters, US) HPLC system was used. Elution was with buffer A (25 mM ammoniumacetate (pH 5.2) in H2O/acetonitrile (95/5)), solvent B being acetonitrile and solvent C methanol at a flow rate of 2.4 ml/min. The gradient employed was increasing the organic phase concentration from 0% over 50% B and 50% C in 5 min up to 100% B in 1 minute in a linear fashion and organic phase concentration was kept stationary for an additional 1.5 minutes. Total injection volume of the samples was 25 μl.
A Quatro triple quadrupole mass spectrometer fitted with and ESP source was used as detector. The source and the desolvation temperature were set at 120 and 350° C. respectively and nitrogen was used as nebuliser and drying gas. Data were acquired in positive scan mode (single ion reaction). Cone voltage was set at 10 V and the dwell time was 1 second.
Metabolic stability was expressed as % metabolism of the compound after 60 minutes (equation given as Example) of incubation in the presence of active microsomes E(act))
Background: Liver microsomes are vesicles of endoplasmic reticulum, rich in cytochrome P450 enzymes.

T1 sequence (Q13639 whole entry): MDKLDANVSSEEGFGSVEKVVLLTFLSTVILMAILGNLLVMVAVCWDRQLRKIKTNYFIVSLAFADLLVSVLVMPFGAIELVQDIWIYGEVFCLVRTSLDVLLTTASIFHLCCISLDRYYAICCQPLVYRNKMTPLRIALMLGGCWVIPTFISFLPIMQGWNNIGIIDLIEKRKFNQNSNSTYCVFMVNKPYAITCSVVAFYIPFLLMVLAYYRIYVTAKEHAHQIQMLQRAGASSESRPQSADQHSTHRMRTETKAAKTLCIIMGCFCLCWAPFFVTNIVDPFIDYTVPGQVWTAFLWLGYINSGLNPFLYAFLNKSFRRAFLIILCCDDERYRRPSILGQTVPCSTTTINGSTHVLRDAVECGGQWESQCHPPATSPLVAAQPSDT

Turning to `O=C1CN(CCCN2CC[C@@H](CNC(=O)c3cc(Cl)cc4c3OCCCO4)[C@H](O)C2)C(=O)N1` (relative stereo) [Compound 21], the IC50 in series [1] is 6.46 nM. In addition, the “% metabolised compound after 60 minutes” value in series [2] was 30.5%.

On to `CO[C@@H]1CN(CCCCn2ccc(O)n2)CC[C@H]1CNC(=O)c1cc(Cl)c(Br)c2c1OCCCO2` (relative stereo) [Compound 30], for which the IC50 in series [1] was 1 nM.

As to `COc1ccc(C(=O)NC[C@@H]2CCN(CCCCn3ccc(O)n3)C[C@H]2O)c2c1OCCO2` [Compound 1], the IC50 in series [1] was 2.4 nM. Moreover, the “% metabolised compound after 60 minutes” value in series [2] worked out at 5%.

As to `Cc1cc2c(c(C(=O)NC[C@@H]3CCN(CCCc4cc(O)no4)C[C@H]3O)c1)OCCO2` [Compound 2], in series [1], the IC50 was 8.71 nM. For the same compound, in series [2], the “% metabolised compound after 60 minutes” value is recorded as 0%.

`N#Cc1cc2c(c(C(=O)NC[C@@H]3CCN(CCCc4cc(O)no4)C[C@H]3O)c1)OCCO2` [Compound 3]: the IC50 in series [1] was 148 nM.

Regarding `COc1ccc(C(=O)NCC2CCN(CCCCn3ccc(O)n3)CC2OC)c2c1OCCO2` (centres unmarked) [Compound 4], the IC50 in series [1] was 11.5 nM. Further, the “% metabolised compound after 60 minutes” value in series [2] was found to be 11%.

Regarding `COc1ccc(C(=O)NC[C@@H]2CCN(CCCc3cc(O)no3)C[C@H]2O)c2c1OCCO2` [Compound 5], the IC50 in series [1] is 123 nM. Besides, the “% metabolised compound after 60 minutes” value in series [2] is listed as 4%.

Turning to `O=C(NC[C@@H]1CCN(CCCc2cc(O)no2)C[C@H]1O)c1cc(F)cc2c1OCCO2` [Compound 6], in series [1], the IC50 is 2750 nM. Besides, in series [2], the “% metabolised compound after 60 minutes” value came to 8%.

On to `O=C(NCC1CCN(CCCc2nnn[nH]2)CC1O)c1cc(Cl)cc2c1OCCCO2` (centres unmarked) [Compound 7], for which the IC50 in series [1] was 31.6 nM. The “% metabolised compound after 60 minutes” value in series [2] turned out to be 5%.

Regarding `O=C(NC[C@@H]1CCN(CCCCc2nnn[nH]2)C[C@H]1O)c1cc(Cl)cc2c1OCCCO2` [Compound 8], the IC50 in series [1] was 7.24 nM. Also, the “% metabolised compound after 60 minutes” value in series [2] was 2.5%.

On to `Cc1ccc(C(=O)NC[C@@H]2CCN(CCCc3nnn[nH]3)C[C@H]2O)c2c1OCCCO2` [Compound 9], for which the IC50 in series [1] was 7.94 nM. The “% metabolised compound after 60 minutes” value in series [2] stood at 3%.

With `Cc1ccc(C(=O)NC[C@@H]2CCN(CCCCc3nnn[nH]3)C[C@H]2O)c2c1OCCCO2` [Compound 10], in series [1], the IC50 is 5.62 nM. In series [2], the “% metabolised compound after 60 minutes” value was found to be 2%.

For `O=C(NCC1CCN(CCCCn2ccc(O)n2)CC1O)c1cc(Cl)cc2c1OCCCO2` (centres unmarked) [Compound 11], in series [1], the IC50 is 1.26 nM. Besides, the “% metabolised compound after 60 minutes” value in series [2] turned out to be 39%.

Take `Cc1cc2c(c(C(=O)NC[C@@H]3CCN(CCCCc4nnn[nH]4)C[C@H]3O)c1)OCCCO2` [Compound 13]: the IC50 in series [1] is 13.2 nM. Further, in series [2], the “% metabolised compound after 60 minutes” value is 2%.

On to `Cc1cc2c(c(C(=O)NC[C@@H]3CCN(CCCCn4ccc(O)n4)C[C@H]3O)c1)OCCCO2` [Compound 15], for which, in series [1], the IC50 is 1.91 nM. The “% metabolised compound after 60 minutes” value in series [2] is listed as 26%.

Regarding `O=C(NC[C@@H]1CCN(CCCn2nn[nH]c2=O)C[C@H]1O)c1cc(Cl)cc2c1OCCCO2` [Compound 16], in series [1], the IC50 is 18.2 nM. Besides, in series [2], the “% metabolised compound after 60 minutes” value is on record as 0.5%.

For `O=C(NC[C@@H]1CCN(CCc2nnn[nH]2)C[C@H]1O)c1cc(Cl)cc2c1OCCCO2` [Compound 20], the IC50 in series [1] is 64.6 nM. The “% metabolised compound after 60 minutes” value in series [2] is reported as 0%.

In the case of `Cc1ccc(C(=O)NC[C@@H]2CCN(CCc3nnn[nH]3)C[C@H]2O)c2c1OCCCO2` [Compound 22], the IC50 in series [1] is 9.55 nM. In series [2], the “% metabolised compound after 60 minutes” value was 4.5%.

With `Cc1cc2c(c(C(=O)NC[C@@H]3CCN(CCCc4cc(O)no4)C[C@H]3O)c1)OCCCO2` [Compound 23], the IC50 in series [1] is 16.6 nM. Besides, the “% metabolised compound after 60 minutes” value in series [2] is given as 6%.

With `Cc1cc2c(c(C(=O)NCC3CCN(CCCN4CC(=O)NC4=O)CC3O)c1)OCCCO2` (centres unmarked) [Compound 24], in series [1], the IC50 was 7.08 nM. For the same compound, the “% metabolised compound after 60 minutes” value in series [2] is 16%.

With `COC1CN(CCCCn2ccc(O)n2)CCC1CNC(=O)c1cc(C#N)cc2c1OCCCO2` (centres unmarked) [Compound 25], the IC50 in series [1] is 33.9 nM. In addition, the “% metabolised compound after 60 minutes” value in series [2] is given as 55%.

On to `Cc1ccc(C(=O)NC[C@@H]2CCN(CCCc3cc(O)no3)C[C@H]2O)c2c1OCCCO2` [Compound 26], for which the IC50 in series [1] is 16.6 nM. Besides, the “% metabolised compound after 60 minutes” value in series [2] was found to be 3%.

On to `O=C(NC[C@@H]1CCN(CCCc2cc(O)no2)C[C@H]1O)c1cc(Cl)cc2c1OCCCO2` [Compound 27], for which the IC50 in series [1] was 10.2 nM. Besides, the “% metabolised compound after 60 minutes” value in series [2] turned out to be 12%.

In the case of `O=C(NCC1CCN(CCCCn2ccc(O)n2)CC1O)c1cc(Cl)c(Br)c2c1OCCCO2` (centres unmarked) [Compound 28], the IC50 in series [1] was 1.17 nM. Moreover, in series [2], the “% metabolised compound after 60 minutes” value turned out to be 53%.

As for `O=C(NCC1CCN(CCCCn2ccc(O)n2)CC1O)c1cc(Cl)c(Cl)c2c1OCCCO2` (centres unmarked) [Compound 29], the IC50 in series [1] is 0.871 nM. In addition, in series [2], the “% metabolised compound after 60 minutes” value stood at 50%.

`Cc1cc2c(c(C(=O)NC[C@@H]3CCN(CCCN4C(=O)CNC4=O)C[C@H]3O)c1)OCCCO2` [Compound 31]: the IC50 in series [1] was 1.48 nM. For the same compound, the “% metabolised compound after 60 minutes” value in series [2] was 12%.

Consider `COC1CN(CCCCn2ccc(O)n2)CCC1CNC(=O)c1cc(Cl)c(Cl)c2c1OCCCO2` (centres unmarked) [Compound 32], for which the IC50 in series [1] is 0.759 nM.

As to `N#Cc1cc2c(c(C(=O)NC[C@@H]3CCN(CCCCn4ccc(O)n4)C[C@H]3O)c1)OCCCO2` [Compound 34], the IC50 in series [1] is 3.89 nM. For the same compound, the “% metabolised compound after 60 minutes” value in series [2] is recorded as 11%.

As for `COc1ccc(C(=O)NC[C@@H]2CCN(CCCc3cc(O)no3)C[C@H]2O)c2c1OCCCO2` [Compound 35], the IC50 in series [1] was 83.2 nM.

Turning to `O=C(NC[C@@H]1CCN(CCCc2cc(O)no2)C[C@H]1O)c1cc(F)cc2c1OCCCO2` [Compound 36], in series [1], the IC50 was 14.1 nM. In series [2], the “% metabolised compound after 60 minutes” value was determined as 10%.

On to `O=C(NC[C@@H]1CCN(CCCc2cc(O)no2)C[C@H]1O)c1cccc2c1OCCCO2` [Compound 37], for which, in series [1], the IC50 was 17.8 nM. Moreover, in series [2], the “% metabolised compound after 60 minutes” value is listed as 1%.

Turning to `Cc1cc2c(c(C(=O)NC[C@@H]3CCN(CCCCN4CCOCC4)C[C@H]3O)c1)OCCCO2` [Compound 38], in series [1], the IC50 is 1.05 nM. Further, the “% metabolised compound after 60 minutes” value in series [2] amounted to 18%.

Consider `COC1CN(CCCc2cc(O)no2)CCC1CNC(=O)c1cc(Cl)cc2c1OCCCO2` (centres unmarked) [Compound 39], for which the IC50 in series [1] was 22.9 nM. Further, the “% metabolised compound after 60 minutes” value in series [2] is 17%.

For `COc1ccc(C(=O)NC[C@@H]2CCN(CCCCN3CCOCC3)C[C@H]2O)c2c1OCCCO2` [Compound 42], in series [1], the IC50 was 4.07 nM. Also, in series [2], the “% metabolised compound after 60 minutes” value came to 0%.

For `COc1ccc(C(=O)NCC2CCN(CCCc3cc(O)no3)CC2OC)c2c1OCCCO2` (centres unmarked) [Compound 44], the IC50 in series [1] was 372 nM. In addition, the “% metabolised compound after 60 minutes” value in series [2] amounted to 3%.

Consider `COC1CN(CCCc2cc(O)no2)CCC1CNC(=O)c1cc(C)cc2c1OCCCO2` (centres unmarked) [Compound 45], for which, in series [1], the IC50 was 132 nM. The “% metabolised compound after 60 minutes” value in series [2] came to 6%.
